{
  "source": "the NIST ThermoML archive (doi:10.1016/j.tca.2006.10.005)",
  "assay": "molar heat capacity at constant pressure",
  "settings": "101.33 kPa, Crystal",
  "note": "± gives the expanded uncertainty stated by the source.",
  "data": [
    {"smiles": "O=C([O-])[O-].[Li+].[Li+]", "note": "[lithium carbonate]", "values": [
      {"measurement": "molar heat capacity at constant pressure", "setting": "303.15 K", "value": "99.89 ± 0.63", "unit": "J/K/mol"},
      {"measurement": "molar heat capacity at constant pressure", "setting": "323.15 K", "value": "100.98 ± 0.85", "unit": "J/K/mol"},
      {"measurement": "molar heat capacity at constant pressure", "setting": "343.15 K", "value": "107.69 ± 1", "unit": "J/K/mol"},
      {"measurement": "molar heat capacity at constant pressure", "setting": "363.15 K", "value": "111.21 ± 1.1", "unit": "J/K/mol"},
      {"measurement": "molar heat capacity at constant pressure", "setting": "383.15 K", "value": "115.61 ± 1.3", "unit": "J/K/mol"},
      {"measurement": "molar heat capacity at constant pressure", "setting": "403.15 K", "value": "116.88 ± 2.4", "unit": "J/K/mol"},
      {"measurement": "molar heat capacity at constant pressure", "setting": "443.15 K", "value": "120.05 ± 3.7", "unit": "J/K/mol"},
      {"measurement": "molar heat capacity at constant pressure", "setting": "483.15 K", "value": "129.08 ± 1.9", "unit": "J/K/mol"},
      {"measurement": "molar heat capacity at constant pressure", "setting": "533.15 K", "value": "132.77 ± 2.9", "unit": "J/K/mol"},
      {"measurement": "molar heat capacity at constant pressure", "setting": "563.15 K", "value": "137.29 ± 3.1", "unit": "J/K/mol"}
    ]}
  ]
}
